Results published in the NIST ThermoML archive (doi:10.1016/j.tca.2015.03.015).

Assay: mn = molality of the nth substance listed, in mol/kg
Details: 100 kPa, Liquid; for speed of sound: Frequency=3 MHz, Sing-around technique in a fixed-path interferometer; for mass density: Vibrating tube method

O=C(CO)[C@@H](O)[C@H](O)[C@H](O)CO [D-fructose] + O
Details | mass density, 288.15 K [kg/m3] | mass density, 293.15 K [kg/m3] | mass density, 298.15 K [kg/m3] | mass density, 303.15 K [kg/m3] | mass density, 308.15 K [kg/m3] | speed of sound, 288.15 K [m/s] | speed of sound, 298.15 K [m/s] | speed of sound, 303.15 K [m/s] | speed of sound, 308.15 K [m/s]
m1 = 0.05 | 1003.31 | 1002.37 | 1001 | 999.53 | 998.08 | – | – | 1512.2 | –
m1 = 0.15 | – | 1009.21 | – | – | 1004.78 | – | – | 1518.1 | –
m1 = 0.25 | 1017.01 | 1015.91 | 1014.56 | 1013.07 | – | 1484.3 | 1513 | – | 1534.2
m1 = 0.35 | 1023.52 | 1022.43 | 1021.07 | 1019.48 | 1017.69 | 1491.3 | 1519.1 | 1530.3 | 1539.9
